Test results reported in patent publication US4929739A, “Complexes of tellurium and selenium derivatives” (Bar-Ilan University, priority 1988, dated 1990).
Read-outs that look alike come from different tables or passages of the source.

Tests used:
[1] = preliminary toxicity studies in mice; assay type: in vivo; details: 6 week old mice
Method: (§1) Preliminary toxicity studies in mice have established an LD50 of 300 μg./25 g of body weight in 6 week old mice for the compound of Example 1. The compounds may be used as anti-bacterial or anti-viral agents in plants or in animals. Virus infections such as West Nile virus infections in mice are susceptible to the compound of the Example 1 at a dose of 10 μg/day/mouse. Plant bacterial infections such as crown gall caused by Agrobacterium tumefaciens may be treated or prevented by the application of a 0.1% solution of compounds of the invention.

[2] = test system: West Nile virus; experiment: West Nile virus infections in mice; assay type: in vivo; details: 10 μg/day/mouse
Method: as §1

[3] = test system: human mononuclear cells; experiment: stimulation of human mononuclear cells, proliferation (3H-methylthymidine); assay type: cell-based; design: unit not given here; details: Table 3
Method: Citrate and tartrate complexes of ammonium trichloro (dioxoethylene-0,0') tellurate are tested for the stimulation of human mononuclear cells.
Venous whole blood (with heparin; Evans 10 IU/ml blood) is diluted with RPMI in a ratio of 1:1. […] Each tube is provided with 3 ml Lymphoprep and 6 to 7 ml diluted blood. The tubes are centrifuged 30 minutes at 1600 rpm at room temperature. After the centrifugation mononuclear cells are collected from the interphase fraction and washed with RPMI three times. The cells are resuspended in RPMI, counted on a hemocytometer, using trypan blue to test for viability and then are brought to a concentration of […] in enriched RPMI. The concentrations set forth in Table 3 were added in a volume of 10% of cell mixture. Aliquots of 0.2 ml from each sample were placed in wells of microplates (NUNC) (triplicates). The microplates are incubated for 72 hours at 37° C. after which ^ 3 H-methylthymidine, 1U Ci/well (Nuclear Research Center, Israel) are added to the cultures. Cells were further incubated overnight and harvested with a cell harvester.

[4] = solubilization in aqueous buffer; assay type: physicochemical
Text: The complexes of the invention may be formed by contacting a compound of Formulas A-E with a non-toxic pharmaceutically acceptable complexing agent which forms a water soluble complex with said tellurium or selenium compound. Suitable complexing agents include hydroxy polycarboxylic acids, polycarboxylic acids or polyhydroxy polycarboxylic acids. Generally, it is preferred to prepare the complexes of the invention by contacting a compound of Formulas A-E with a buffer system containing either citric acid or tartaric acid and a corresponding alkali metal salt thereof, such as sodium or potassium.
Generally equimolar amounts of acids and the corresponding alkali metal salts may be combined in aqueous solutions with a compound of Formulas A-E to form the complex of the invention; 0.05M-0.5M concentration of the buffer are preferred but higher or lower amounts may be utilized provided that the concentration is adequate to dissolve the particular compound of Formulas A-E. Higher molarities may be used to provide concentrates that may be diluted prior to IV administration or to prepare other dosage forms. The amount of the compound of Formulas A-E is dependent on the ultimate use of the product. […] This is in contrast to the phosphate buffer (PBS) from which only about 200 mcg/ml of ammonium trichloro (dioxoethylene-0,0') tellurate can be solubilized. […]

[5] = test system: IL-2; experiment: mouse spleen assay, IL-2 activity of supernatants (tritiated thymidine); assay type: cell-based, mouse (male Balb-c); details: for IL-2 activity, 12.5% supernatant / IL-2 activity, 25% supernatant: Table 1, PMA, 96 h; for IL-2 production, supernatant 12.5% / IL-2 production, supernatant 25%: Table 2; for IL-2 activity, 12.5% supernatant / IL-2 production, supernatant 12.5%: 12.5% supernatant; for IL-2 activity, 25% supernatant / IL-2 production, supernatant 25%: 25% supernatant
Method: Two citrate buffer solutions are prepared by combining aqueous 0.05M sodium citrate with 0.05M citric acid or 0.1M sodium citrate and 0.1M citric acid. […] To these solutions are added up to 5 mg/ml of ammomium trichloro (dioxoethylene-0,0') tellurate.
After storage at various temperatures for about two and a half months, dilutions of these solutions were prepared and a mouse spleen assay was performed as follows:
Spleens were removed from male Balb-c mice 6 to 8 weeks of age. The spleen cells were pushed through stainless steel 60 mesh (U.S. standard) nets resting in […] Petri dishes containing PBS in order to separate the cells. The cells were then collected into centrifuge tubes and spun at 1000 rpm for 10 minutes. The supernatant was discarded and cells were treated with 5 ml of hypotonic buffer (0.15 MNH4 Cl; 0.01M KHCO3 dissolved in double distilled water, pH 7.2) for exactly two minutes. Thereafter, PBS* was added to the cells amd the test tubes were centrifuged for 10 minutes at 1000 rpm. The cells were rinsed twice and counted in a heamocytometer using trypan blue to test for viability. The cells were brought to a concentration of 10^7 viable cells/ml. […] Thereafter, the cells were incubated at 37° C., 7.5% CO2 for 96 h. Supernatants were collected and assayed for IL-2 activity using tritiated thymidine (^3 H-TdR).
A 0.04M tartrate buffer in also prepared using the same procedures. The complex is formed by adding ammonium trichloro (dioxoethylene-0,0'-) tellurate to the aqueous tartrate buffer. The effectiveness of the complex in stimulating IL-2 production was determined in the mouse spleen assay.

[6] = test system: producer T-cell lymphocytes; experiment: lymphokine production in producer T-cell lymphocytes in vivo; details: alone
[7] = test system: producer T-cell lymphocytes; experiment: lymphokine production in producer T-cell lymphocytes in vitro; assay type: cell-based; details: alone
[8] = test system: IL-2 producer cells; experiment: proliferation of IL-2 producer cells; assay type: cell-based

## Cl[Te]1(Cl)(Cl)OCCO1.N [Example 1, ammomium trichloro (dioxoethylene-0,0') tellurate]
[1]
  LD50: 300 μg./25 g of body weight
[2]
  susceptibility of West Nile virus infections: susceptible

## Cl[TeH]1(Cl)(Cl)OCCO1 [ammonium trichloro (dioxoethylene-0,0') tellurate]
[3]; 0.05 μg/ml, PMA 0.5 ng/ml cells
  proliferation of mononuclear cells: 6663
[3]; 0.05 μg/ml, PMA 1.5 ng/ml cells
  proliferation of mononuclear cells: 12923
[3]; 0.1 μg/ml, PMA 0.5 ng/ml cells
  proliferation of mononuclear cells: 19810
[3]; 0.1 μg/ml, PMA 1.5 ng/ml cells
  proliferation of mononuclear cells: 42857
[3]; 0.5 μg/ml, PMA 0.5 ng/ml cells
  proliferation of mononuclear cells: 2945
[3]; 0.5 μg/ml, PMA 1.5 ng/ml cells
  proliferation of mononuclear cells: 3287
[4]; citrate buffer, aqueous buffer, read-out: concentration solubilized in citrate
  solubility: ≥ 5000 µg/mL
[4]; phosphate buffer (pbs), read-out: concentration solubilized in phosphate buffer
  solubility: ~200 µg/mL
[5]; 0.05 μg/ml
  IL-2 activity, 12.5% supernatant: 1865 cpm
  IL-2 activity, 25% supernatant: 3762 cpm
  IL-2 production, supernatant 12.5%: 1865 cpm
[5]; 0.1 μg/ml
  IL-2 activity, 12.5% supernatant: 28035 cpm
  IL-2 activity, 25% supernatant: 44378 cpm
  IL-2 production, supernatant 12.5%: 28035 cpm
  IL-2 production, supernatant 25%: 44378 cpm
[5]; 0.5 μg/ml ammonium trichloro(dioxoethylene) tellurate
  IL-2 activity, 25% supernatant: 43833 cpm
[5]; 0.5 μg/ml
  IL-2 activity, 12.5% supernatant: 35270 cpm
  IL-2 production, supernatant 12.5%: 35270 cpm
  IL-2 production, supernatant 25%: 43833 cpm
[5]
  IL-2 production, supernatant 25%: 3762 cpm

## O=[Te]=O [TeO2]
[6]
  induction of lymphokine production in vivo: will induce lymphokine production
[7]
  induction of lymphokine production in vitro: will induce lymphokine production
[8]
  proliferation in producing cells such as IL-2 producer cells: will not cause proliferation
